How the values were obtained:
[1] = target: T1, human L-type amino acid transporter 2 (LAT2; S2-hLAT2 cells) (Homo sapiens, UniProt Q9UHI5); assay: Inhibition of L-[14C]leucine uptake in S2-LAT2 cells; format: cell-based; conditions: inhibition of 1.0 μM L-[14C]leucine uptake, 1.0 min, 37° C., NI = no inhibition at 100 μM
T1 construct: expressed in transfected cells; host or cells: S2 cells (S2-hLAT2 / S2-LAT2); mammalian cell line described in Morimoto et al., J Pharmacol Sci 2008, 108, 505-516
T1 sequence (Q9UHI5 1-535): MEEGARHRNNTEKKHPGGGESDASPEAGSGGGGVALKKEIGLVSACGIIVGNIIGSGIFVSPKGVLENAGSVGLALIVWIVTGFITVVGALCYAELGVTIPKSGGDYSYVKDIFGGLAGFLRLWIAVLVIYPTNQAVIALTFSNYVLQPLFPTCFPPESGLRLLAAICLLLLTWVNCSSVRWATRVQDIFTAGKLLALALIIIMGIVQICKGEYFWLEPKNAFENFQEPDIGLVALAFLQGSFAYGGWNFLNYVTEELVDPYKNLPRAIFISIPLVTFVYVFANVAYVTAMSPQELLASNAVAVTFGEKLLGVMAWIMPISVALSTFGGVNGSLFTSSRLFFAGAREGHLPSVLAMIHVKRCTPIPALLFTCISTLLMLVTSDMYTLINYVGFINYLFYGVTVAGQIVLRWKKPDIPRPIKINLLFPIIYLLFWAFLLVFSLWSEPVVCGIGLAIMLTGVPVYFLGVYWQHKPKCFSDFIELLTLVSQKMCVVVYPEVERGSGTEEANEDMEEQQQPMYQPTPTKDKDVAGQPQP
T1 sequence (P08195 1-529 partner): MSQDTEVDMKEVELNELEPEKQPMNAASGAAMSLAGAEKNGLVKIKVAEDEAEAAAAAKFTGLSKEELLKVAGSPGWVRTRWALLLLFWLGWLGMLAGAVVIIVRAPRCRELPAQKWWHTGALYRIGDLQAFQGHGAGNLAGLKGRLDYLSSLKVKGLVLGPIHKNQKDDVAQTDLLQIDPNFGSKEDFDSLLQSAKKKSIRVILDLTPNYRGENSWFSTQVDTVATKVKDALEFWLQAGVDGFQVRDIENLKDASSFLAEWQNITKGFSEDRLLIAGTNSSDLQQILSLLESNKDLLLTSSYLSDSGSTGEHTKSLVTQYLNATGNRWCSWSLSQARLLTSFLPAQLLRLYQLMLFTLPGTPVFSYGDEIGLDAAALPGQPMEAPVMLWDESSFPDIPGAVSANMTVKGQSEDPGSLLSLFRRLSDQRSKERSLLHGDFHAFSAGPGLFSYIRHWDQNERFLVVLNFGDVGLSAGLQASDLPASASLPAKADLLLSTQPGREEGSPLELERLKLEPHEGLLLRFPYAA
Protocol: (§1) The establishment and characterization of mammalian cell lines expressing human L-type amino acid transporterss (i.e. S2-hLAT1 and S2-hLAT2) has been previously described (Morimoto et al., Journal of Pharmacological Sciences, 2008, 108, 505-516).
(§2) General test procedures are as follows: All test compounds were dissolved in dimethyl sulfoxide (DMSO) to prepare stock solutions at the concentrations of 0.05, 0.5, 5.0 and 50 mM; next, these stock solutions were used and diluted with uptake solution to make final test concentrations of 0.10, 1.00, 10.0 and 100 μM, respectively. Therefore, all compounds used for uptake experiment were in uptake solution containing 0.2% DMSO; experiments are performed in triplicate for each concentration. For control uptake, only DMSO was added into the uptake solution to a final concentration of 0.2%.
(§3) S2-LAT1 and S2-LAT2 cells were seeded (1.3×10^5 cells/well) into 24-well plates and cultured at 33° C. (5% CO2) for 2-3 days until confluent (90%-100% confluence). Uptake experiments were performed at 37° C. The culture medium was removed and washed 3 times with uptake solution (37° C.; Hank's Na^+ free buffer consisting of 125 mM choline chloride, 4.8 mM KCl, 1.3 mM CaCl2, 1.2 mM MgCl2, 25.0 mM HEPES, and 5.0 mM Tris, pH 7.4, supplemented with D-glucose (5.6 mM). The cells were equilibrated in uptake solution (300 μL; 37° C.) for 12 min. The equilibrated solution was removed and uptake solution containing radio-labeled compound (1.0 μM L-[^14C] Leucine) with or without test compound (300 μL) was added to the cells (1.0 min). The test solution was removed and the cells washed 3 times with ice-cold uptake solution. The cells are then solubilized with 0.1N NaOH (0.5 mL) and transferred to scintillation vials. Liquid scintillation fluid (3.0 mL; aquasol-2) was added, mixed and substrate accumulation was measured by counting radioactivity via liquid scintillation counting (LSC; LSC6100, Aloka, Tokyo). The uptake value and % of inhibition were calculated to afford IC50 values.

[2] = target: T2, human L-type amino acid transporter 1 (LAT1; S2-hLAT1 cells) (Homo sapiens, UniProt Q01650); assay: Inhibition of L-[14C]leucine uptake in S2-LAT1 cells; format: cell-based; conditions: inhibition of 1.0 μM L-[14C]leucine uptake, 1.0 min, 37° C., NI = no inhibition at 100 μM
T2 construct: expressed in transfected cells; host or cells: S2 cells (S2-hLAT1 / S2-LAT1); mammalian cell line described in Morimoto et al., J Pharmacol Sci 2008, 108, 505-516
T2 sequence (Q01650 whole entry, one chain of several): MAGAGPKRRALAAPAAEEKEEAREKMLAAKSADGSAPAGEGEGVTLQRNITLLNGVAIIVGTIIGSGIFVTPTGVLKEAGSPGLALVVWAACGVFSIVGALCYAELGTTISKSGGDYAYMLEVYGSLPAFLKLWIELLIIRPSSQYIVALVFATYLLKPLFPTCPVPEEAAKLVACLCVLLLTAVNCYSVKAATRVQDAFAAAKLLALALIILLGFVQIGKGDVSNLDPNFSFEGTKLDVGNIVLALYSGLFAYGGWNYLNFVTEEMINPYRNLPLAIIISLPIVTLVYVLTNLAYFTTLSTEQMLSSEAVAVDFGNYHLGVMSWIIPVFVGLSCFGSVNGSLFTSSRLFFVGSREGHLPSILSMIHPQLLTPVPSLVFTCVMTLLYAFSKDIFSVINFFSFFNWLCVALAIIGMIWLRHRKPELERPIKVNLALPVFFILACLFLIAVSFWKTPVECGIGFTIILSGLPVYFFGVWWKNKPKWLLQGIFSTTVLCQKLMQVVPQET
Protocol: as §1, §2, §3

IC50 [1]: > 100 µM
IC50 [2]: > 100 µM
Compound: N[C@@H](Cc1cc(Br)c(OCc2ccccc2C(F)(F)F)c(Br)c1)C(=O)O [compound 61]
